Experimental data taken from ChEMBL document CHEMBL3301562, “MMV Box screening against Plasmodium falciparum protein kinases and aminoacyl tRNA synthetases”.

Experiments:
Assay type in all cases: functional
[1] = biological target: T1, Putative uncharacterized protein pk7 (Plasmodium falciparum, UniProt O96214); test: Final concentrations were 1 uM ATP, 2 mM DTT, 20 mM MgCl2, 2 mM MnCl2, 0.01% BSA, and 6 ug/ml PK7, in a buffer of 20 mM Tris-HCl (pH 7.5). The enzyme itself was the only substrate present (since autophosphorylation occurs); 100 uM 1NA-PP1 was used as a control inhibitor. Incubation time was 3 hours.
T1 sequence (O96214 whole entry): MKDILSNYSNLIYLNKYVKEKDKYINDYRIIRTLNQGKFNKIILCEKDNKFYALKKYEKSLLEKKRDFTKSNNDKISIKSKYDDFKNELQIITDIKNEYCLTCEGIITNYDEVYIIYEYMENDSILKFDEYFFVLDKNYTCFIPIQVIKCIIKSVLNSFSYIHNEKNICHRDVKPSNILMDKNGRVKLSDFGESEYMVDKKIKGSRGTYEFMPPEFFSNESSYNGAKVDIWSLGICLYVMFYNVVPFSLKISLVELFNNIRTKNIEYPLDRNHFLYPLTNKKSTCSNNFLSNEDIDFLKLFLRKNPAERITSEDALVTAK

Proline--tRNA ligase = biological target: T2, Proline--tRNA ligase (Plasmodium falciparum (isolate 3D7), UniProt Q8I5R7); test: MMV: ProRS recombinant Plasmodium falciparum Prolyl-tRNA-synthetase, assay with yeast tRNA, ATP, and proline and 3 uM MMV malaria box compound, assay read out with kinase glo as % inhibition.
T2 sequence (Q8I5R7 whole entry): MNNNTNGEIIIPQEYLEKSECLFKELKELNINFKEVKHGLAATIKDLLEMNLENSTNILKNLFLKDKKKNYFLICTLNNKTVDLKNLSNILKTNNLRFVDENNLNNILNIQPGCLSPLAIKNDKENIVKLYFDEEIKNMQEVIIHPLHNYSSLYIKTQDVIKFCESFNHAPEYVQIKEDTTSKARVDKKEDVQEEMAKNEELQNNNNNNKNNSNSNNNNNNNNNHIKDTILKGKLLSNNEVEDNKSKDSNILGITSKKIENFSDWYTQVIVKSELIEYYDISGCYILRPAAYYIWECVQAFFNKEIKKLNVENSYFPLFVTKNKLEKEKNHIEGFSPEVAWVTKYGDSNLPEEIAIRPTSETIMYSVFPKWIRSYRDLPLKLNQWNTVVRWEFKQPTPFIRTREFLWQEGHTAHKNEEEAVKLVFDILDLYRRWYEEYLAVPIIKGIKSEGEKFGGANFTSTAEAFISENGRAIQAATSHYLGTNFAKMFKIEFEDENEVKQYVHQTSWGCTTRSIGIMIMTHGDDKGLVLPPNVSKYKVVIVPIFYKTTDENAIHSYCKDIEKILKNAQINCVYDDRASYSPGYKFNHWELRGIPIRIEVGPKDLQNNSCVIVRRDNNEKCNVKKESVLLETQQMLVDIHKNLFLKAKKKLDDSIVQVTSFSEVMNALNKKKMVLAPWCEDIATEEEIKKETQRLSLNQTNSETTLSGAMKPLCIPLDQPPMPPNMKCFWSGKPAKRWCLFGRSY

[2] = biological target: Calcium-dependent protein kinase 1 (Plasmodium falciparum, UniProt P62344); test: MMV: CDPK1 Protein kinase inhibition assay using recombinant PfCDPK1, syntide 2 peptide substrate, ATP and KinaseGlo to measure % inhibition at 1 uM MMV box compound.
Calcium-dependent protein kinase 1, sequence (P62344 whole entry): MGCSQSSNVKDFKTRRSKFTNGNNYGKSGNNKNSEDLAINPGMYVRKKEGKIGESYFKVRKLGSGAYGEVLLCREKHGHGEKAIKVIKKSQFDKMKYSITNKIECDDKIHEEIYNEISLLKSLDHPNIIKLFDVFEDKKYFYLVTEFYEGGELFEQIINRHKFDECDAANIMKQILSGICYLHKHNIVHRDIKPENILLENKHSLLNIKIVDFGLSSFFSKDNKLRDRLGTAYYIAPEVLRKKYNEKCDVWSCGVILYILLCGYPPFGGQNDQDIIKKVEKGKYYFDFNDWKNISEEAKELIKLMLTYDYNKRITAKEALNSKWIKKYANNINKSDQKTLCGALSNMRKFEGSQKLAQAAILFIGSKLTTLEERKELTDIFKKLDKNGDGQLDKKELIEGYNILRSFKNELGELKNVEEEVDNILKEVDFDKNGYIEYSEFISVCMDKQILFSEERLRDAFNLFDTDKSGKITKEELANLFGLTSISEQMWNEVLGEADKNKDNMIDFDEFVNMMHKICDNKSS

[3] = biological target: T3, Calcium-dependent protein kinase 4 (Plasmodium falciparum (isolate 3D7), UniProt Q8IBS5); test: MMV: CDPK4 Protein kinase inhibition assay using recombinant PfCDPK4, syntide2 peptide substrate, ATP and KinaseGlo to measure % inhibition at 1 uM MMV box compound.
T3 sequence (Q8IBS5 whole entry): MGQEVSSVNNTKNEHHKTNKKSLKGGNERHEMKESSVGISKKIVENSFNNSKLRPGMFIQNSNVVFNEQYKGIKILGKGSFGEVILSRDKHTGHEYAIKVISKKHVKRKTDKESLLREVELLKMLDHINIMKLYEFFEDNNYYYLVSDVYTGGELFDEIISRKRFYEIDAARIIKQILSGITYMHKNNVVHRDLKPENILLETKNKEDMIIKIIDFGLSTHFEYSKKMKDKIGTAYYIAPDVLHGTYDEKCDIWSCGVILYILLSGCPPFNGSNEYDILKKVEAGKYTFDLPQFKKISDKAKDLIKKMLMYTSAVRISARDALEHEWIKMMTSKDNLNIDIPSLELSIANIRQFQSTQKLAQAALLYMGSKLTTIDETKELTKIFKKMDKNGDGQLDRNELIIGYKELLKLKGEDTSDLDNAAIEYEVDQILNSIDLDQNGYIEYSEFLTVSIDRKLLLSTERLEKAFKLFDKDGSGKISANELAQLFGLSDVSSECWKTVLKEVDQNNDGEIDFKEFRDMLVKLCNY

[4] = biological target: T4, Cdk-related protein kinase 6 (Plasmodium falciparum, UniProt O77239); test: Final concentrations were 1.5 uM ATP, 5 mM MnCl2, and 15 ug/ml PK6 in a buffer of 100 mM Tris-HCl (pH 7.5). 50 ug/mL MBP was provided as the substrate; 10 uM staurosporine was used as a control inhibitor. Incubation time was 3 hours and 40 minutes.The catalytic activity of each kinase was considered proportional to ATP consumed, as determined from measurements of residual [ATP] with the luciferase-based reagent Kinase-Glo (Promega) following incubation. Luminescence (proportional to residual [ATP]) was measured on the plate readers FLx800 (BioTek Instruments, Winooski, VT, USA) and MicroBeta2.
T4 sequence (O77239 whole entry): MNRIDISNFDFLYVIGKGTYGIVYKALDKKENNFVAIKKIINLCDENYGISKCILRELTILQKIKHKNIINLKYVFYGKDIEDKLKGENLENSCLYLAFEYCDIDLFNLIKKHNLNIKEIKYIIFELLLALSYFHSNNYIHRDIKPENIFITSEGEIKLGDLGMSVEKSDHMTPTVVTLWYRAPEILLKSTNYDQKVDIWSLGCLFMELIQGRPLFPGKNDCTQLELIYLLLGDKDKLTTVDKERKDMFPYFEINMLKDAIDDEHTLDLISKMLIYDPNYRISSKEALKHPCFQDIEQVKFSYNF

[5] = biological target: T5, Mitogen-activated protein kinase (Plasmodium falciparum, UniProt Q25917); test: Final concentrations were 1 uM ATP, 0.5 mM DTT, 1 mM MgCl2, 0.5 mg/mL BSA, and 10 ug/ml MAP2 in a buffer of 50 mM HEPES (pH 7.0). 0.5 mg/mL histone III-S served as the substrate (13); 100 uM AMP-PNP, an ATP analog, was used as a control inhibitor. Incubation time was 4 hours.
T5 sequence (Q25917 whole entry): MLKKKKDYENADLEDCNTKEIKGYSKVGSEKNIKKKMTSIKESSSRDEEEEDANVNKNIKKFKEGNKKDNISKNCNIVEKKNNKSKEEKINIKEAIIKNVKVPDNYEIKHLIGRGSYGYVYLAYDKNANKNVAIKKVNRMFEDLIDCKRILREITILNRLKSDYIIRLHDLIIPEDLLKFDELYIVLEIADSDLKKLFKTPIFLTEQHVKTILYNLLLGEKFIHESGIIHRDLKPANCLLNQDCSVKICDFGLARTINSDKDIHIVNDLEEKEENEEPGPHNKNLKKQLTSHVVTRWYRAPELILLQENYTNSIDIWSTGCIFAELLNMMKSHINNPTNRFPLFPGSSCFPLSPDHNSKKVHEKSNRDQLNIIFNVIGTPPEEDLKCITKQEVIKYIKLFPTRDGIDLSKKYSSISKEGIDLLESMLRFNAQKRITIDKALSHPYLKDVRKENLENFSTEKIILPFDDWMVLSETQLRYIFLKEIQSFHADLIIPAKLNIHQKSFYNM

Lysine--tRNA ligase = Lysine--tRNA ligase (Plasmodium falciparum (isolate 3D7), UniProt Q8IDJ8); test: MMV: KRS recombinant Plasmodium falciparum Lysyl-tRNA-synthetase, assay with yeast tRNA, ATP, and lysine and 3 uM MMV malaria box compound, assay read out with kinase glo as % inhibition.
Lysine--tRNA ligase, sequence (Q8IDJ8 whole entry): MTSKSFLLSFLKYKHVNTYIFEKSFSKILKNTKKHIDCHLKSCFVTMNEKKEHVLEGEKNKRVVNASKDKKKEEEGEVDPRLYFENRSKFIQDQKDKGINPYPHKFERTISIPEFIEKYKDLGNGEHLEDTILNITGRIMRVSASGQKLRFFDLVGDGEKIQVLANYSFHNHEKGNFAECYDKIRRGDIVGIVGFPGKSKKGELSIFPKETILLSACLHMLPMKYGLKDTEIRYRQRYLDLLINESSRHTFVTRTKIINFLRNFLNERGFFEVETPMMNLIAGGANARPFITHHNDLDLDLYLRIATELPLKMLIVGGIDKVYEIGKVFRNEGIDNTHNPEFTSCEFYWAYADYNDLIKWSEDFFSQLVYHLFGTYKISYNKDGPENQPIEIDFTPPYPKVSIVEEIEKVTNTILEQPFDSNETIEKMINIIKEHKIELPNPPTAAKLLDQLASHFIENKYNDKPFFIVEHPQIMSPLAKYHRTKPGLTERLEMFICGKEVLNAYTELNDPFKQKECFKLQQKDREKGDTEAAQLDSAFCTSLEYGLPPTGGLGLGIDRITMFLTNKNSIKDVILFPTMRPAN

| SMILES | IC50 [1] [µM] | IC50 (Proline--tRNA ligase) [µM] | IC50 [2] [µM] | IC50 [3] [µM] | IC50 [4] [µM] | IC50 [5] [µM] | IC50 (Lysine--tRNA ligase) [µM] |
| --- | --- | --- | --- | --- | --- | --- | --- |
| Oc1ccccc1CN1CCC2(CCCN(Cc3ccccc3F)C2)C1 (configuration not stated) | > 1 | > 2.5 | > 1 | > 1 | > 1 | > 1 | > 2.5 |
| Cc1ccc(-c2cc(C(=O)Nc3ccc(S(=O)(=O)N4CCCCC4)cc3)[nH]n2)c(O)c1 | > 1 | > 2.5 | > 1 | > 1 | > 1 | > 1 | > 2.5 |
| COc1ccc(N2CCN(C(CNC(=O)C3CCCCC3)c3ccc4c(c3)OCO4)CC2)cc1 (configuration not stated) | > 1 | > 2.5 | > 1 | > 1 | > 1 | > 1 | > 2.5 |
| Cc1[nH]c(-c2ccc(F)cc2)cc1C(=O)NC1CCN(Cc2ccccc2)CC1 | > 1 | > 2.5 | > 1 | > 1 | > 1 | > 1 | > 2.5 |
| O=C(NC1CCCC1)c1ccc(N2CCC(NCc3cccc(C(F)(F)F)c3)CC2)cc1 | > 1 | > 2.5 | > 1 | > 1 | > 1 | > 1 | > 2.5 |
| CCOc1cc(Br)c(C(C)NC(=O)c2cccc(OC)c2)cc1OCC (configuration not stated) | > 1 | > 2.5 | > 1 | > 1 | > 1 | > 1 | > 2.5 |
| CCN(CC)CCn1c(=N)n(CC(O)c2ccc(Cl)c(Cl)c2)c2ccccc21 (configuration not stated) | > 1 | > 2.5 | > 1 | > 1 | > 1 | > 1 | > 2.5 |
| Cc1ccc(CSCc2ccc(C(=O)NC3CC3)o2)cc1 | > 1 | > 2.5 | > 1 | > 1 | > 1 | > 1 | > 2.5 |
| CC(=O)NCCc1nc2ccccc2n1Cc1ccc(C(C)C)cc1 | > 1 | > 2.5 | > 1 | > 1 | > 1 | > 1 | > 2.5 |
| CCCC(c1nnnn1C1CCCCC1)N1CCN(C(=O)c2ccco2)CC1 (configuration not stated) | > 1 | > 2.5 | > 1 | > 1 | > 1 | > 1 | > 2.5 |
| CC(C)(C)C(=O)Nc1ccc(C(=O)Nc2cccc(-c3nc4ccccc4[nH]3)c2)cc1 | > 1 | > 2.5 | > 1 | > 1 | > 1 | > 1 | > 2.5 |
| COc1ccc(-c2nonc2NC(=O)c2cccc(C)c2)cc1OC | > 1 | > 2.5 | > 1 | > 1 | > 1 | > 1 | > 2.5 |
| Cc1cc(C)c2nc(N3CCC(C(=O)NCCCN4CCC(N5CCCCC5)CC4)CC3)sc2c1 | > 1 | > 2.5 | > 1 | > 1 | > 1 | > 1 | > 2.5 |
| CC(C)(C)c1ccc(C(=O)Nc2nc3ccccc3s2)cc1 | > 1 | > 2.5 | > 1 | > 1 | > 1 | > 1 | > 2.5 |
| COc1ccccc1CNC(=O)C1c2ccccc2C(=O)N(CC(C)C)C1c1cccs1 (configuration not stated) | > 1 | > 2.5 | > 1 | > 1 | > 1 | > 1 | > 2.5 |
| COc1ccc(C2N(C)c3ccccc3N2C)cc1 | > 1 | > 2.5 | > 1 | > 1 | > 1 | > 1 | > 2.5 |
| CC(C)OCc1cc(CN2CCN(c3cccc(Cl)c3)CC2)c(O)c2ncccc12 | > 1 | > 2.5 | > 1 | > 1 | > 1 | > 1 | > 2.5 |
| O=C(Nc1ccc(F)c(Cl)c1)Nc1ccc(Cl)c(Cl)c1 | > 1 | > 2.5 | > 1 | > 1 | > 1 | > 1 | > 2.5 |
| CCCN(CCC)CCCNC(=O)c1cc2c(-c3ccc(OC)c(OC)c3)nn(C)c2s1 | > 1 | > 2.5 | > 1 | > 1 | > 1 | > 1 | > 2.5 |
| O=C(NCC1Cc2cccc(-c3ccncc3)c2O1)c1csc2c1CCCC2 (configuration not stated) | > 1 | > 2.5 | > 1 | > 1 | > 1 | > 1 | > 2.5 |
| C=CCc1c(C)nc2ccccc2c1O | > 1 | > 2.5 | > 1 | > 1 | > 1 | > 1 | > 2.5 |
